In ChEMBL document CHEMBL1201862, “PubChem BioAssay data set” (2004):
Calls of active or inactive are those of the source. No stated cut-off is given here; in the data, actives have a measured EC50 and inactives only a lower limit.

Tests used:
[1] = molecular target: T1, Corticotropin-releasing factor receptor 2/Corticotropin-releasing factor-binding protein (Homo sapiens, UniProt P24387+Q13324); assay: activators of CRF receptor 2 with binding protein – uHTS hits, confirmation (AID 602473); format: functional; conditions: read-out: EC50_Mean
T1 sequence (Q13324 whole entry): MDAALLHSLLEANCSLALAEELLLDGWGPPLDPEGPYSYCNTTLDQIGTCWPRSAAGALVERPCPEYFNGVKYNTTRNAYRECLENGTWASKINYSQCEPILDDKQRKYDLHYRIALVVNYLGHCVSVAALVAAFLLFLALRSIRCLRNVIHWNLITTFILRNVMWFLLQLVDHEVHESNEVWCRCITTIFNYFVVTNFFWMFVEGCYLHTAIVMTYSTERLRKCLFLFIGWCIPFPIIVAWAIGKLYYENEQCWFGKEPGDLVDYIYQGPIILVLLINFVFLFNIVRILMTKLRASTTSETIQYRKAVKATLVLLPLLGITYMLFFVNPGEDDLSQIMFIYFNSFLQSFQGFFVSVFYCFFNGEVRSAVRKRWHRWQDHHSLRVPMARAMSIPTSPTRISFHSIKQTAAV
T1 sequence (P24387 whole entry): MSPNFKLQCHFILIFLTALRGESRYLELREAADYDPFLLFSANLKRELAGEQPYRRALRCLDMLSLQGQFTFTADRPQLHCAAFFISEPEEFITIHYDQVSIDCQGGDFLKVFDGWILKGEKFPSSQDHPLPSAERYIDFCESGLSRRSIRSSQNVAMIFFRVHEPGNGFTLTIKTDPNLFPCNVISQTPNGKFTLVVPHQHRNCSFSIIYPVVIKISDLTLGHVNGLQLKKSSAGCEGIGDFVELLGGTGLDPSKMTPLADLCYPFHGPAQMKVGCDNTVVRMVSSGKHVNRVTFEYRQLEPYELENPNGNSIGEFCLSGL

[2] = Trypanosoma cruzi growth suppression in host cells – NIH3T3 host cells, beta-gal luminescence, confirmation (AID 2044); format: functional, cell-based;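 further: intracellular parasites grown in NIH/3T3 mouse fibroblasts as host cells; luminescent beta-galactosidase reporter signal from transgenic T. cruzi replicating inside host cells; inhibitors lower the luminescence signal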
[3] = NIH3T3 cell viability loss – ATP luminescence, mouse fibroblasts, counter-screen, dose response (AID 2010); format: functional, cell-based;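 further: cells exposed to compound for about 90 hours before reading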
[4] = Luminescence Cell-Based Dose Response HTS to Identify Activators of Luciferase Translation or Activity in H4 […] Cells. [Related pubchem assays: 1829 (Project Summary), 1814 (Primary HTS)]; format: functional
[5] = molecular target: T2, Streptokinase A (Streptococcus pyogenes serotype M1, UniProt P10520); assay: viability-normalized secreted streptokinase activity reduction – plasminogen activation absorbance, OD405, dose response (AID 1914); format: functional, Streptococcus pyogenes M1 GAS;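 further: secreted streptokinase activity via plasminogen activation per viability signal from cell pellet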
T2 sequence (P10520 whole entry): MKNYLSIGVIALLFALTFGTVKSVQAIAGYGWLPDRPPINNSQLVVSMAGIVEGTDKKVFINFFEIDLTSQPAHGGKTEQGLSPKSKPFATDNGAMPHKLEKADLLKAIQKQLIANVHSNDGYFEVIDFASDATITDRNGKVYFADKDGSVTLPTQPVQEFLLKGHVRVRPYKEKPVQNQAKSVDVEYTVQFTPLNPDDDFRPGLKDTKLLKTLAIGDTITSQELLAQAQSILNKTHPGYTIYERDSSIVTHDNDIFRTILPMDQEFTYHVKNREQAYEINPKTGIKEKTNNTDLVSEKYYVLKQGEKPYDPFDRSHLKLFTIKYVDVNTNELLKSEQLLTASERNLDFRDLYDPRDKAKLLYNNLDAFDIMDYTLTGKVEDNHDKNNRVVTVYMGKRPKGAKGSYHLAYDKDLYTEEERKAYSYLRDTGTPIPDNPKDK

[6] = test system: Streptococcus sp. 'group A'; assay: Streptococcus pyogenes SK(-)GAS viability under kanamycin – luminescence, BacTiterGlo, confirmation, counter-screen for streptokinase expression inhibitor project, dose response (AID 1900); format: functional, organism-based
[7] = test system: Streptococcus; assay: GAS UMAA2166 growth inhibition – luminescence, BacTiterGlo, counter-screen for streptokinase expression inhibitor project, dose response (AID 1915); format: functional, organism-based;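 further: potency for reduction of bacterial viability or growth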

COc1ccc(CCn2c(C(C)C)nc3c(c(=O)c4ccccc4n3C)c2=O)cc1
EC50 [1]: 7.87 µM (active)

Cc1nn(Cc2ccccc2)c(C)c1NC(=O)c1ccc([N+](=O)[O-])cc1[N+](=O)[O-]
EC50 [2]: 0.307 µM (active) | EC50 [3]: > 60 µM (not active)

Clc1ccc(-c2csc(Nc3cccnc3)n2)cc1
EC50 [2]: 0.3 µM (active) | EC50 [3]: > 60 µM (not active)

Nc1nc2n(n1)C(c1cccc(Br)c1)CC(c1ccc(F)cc1)N2 (centres undefined)
EC50 [1]: > 53 µM (inactive)

CN(c1ccc(OCC(=O)Nc2nc(-c3ccccc3)cs2)cc1)S(=O)(=O)c1ccc(F)cc1
EC50 [2]: 1.14 µM (active) | EC50 [3]: > 60 µM (not active)

CCc1cccc(C)c1NC(=O)COC(=O)c1c2c(nc3ccccc13)/C(=C\c1cccs1)CCC2
EC50 [2]: 2.22 µM (active) | EC50 [3]: > 60 µM (not active)

COc1ccc(Cl)cc1N=C(S)N(Cc1cccnc1)Cc1ccco1
EC50 [2]: 0.722 µM (active) | EC50 [3]: > 60 µM (not active)

Cc1nc(-c2ccccc2)sc1-c1ccnn1C
EC50 [4]: 0.367 µM (active)

O=C(COC(=O)Cc1cn2ccsc2n1)Nc1nc2ccccc2s1
EC50 [5]: > 150 µM (not active) | EC50 [6]: 2.64 µM (active) | EC50 [7]: 6.72 µM (active)

COc1ccc(-c2cc(C(F)(F)F)n3ncc(C(=O)N4CCc5ccccc5C4)c3n2)cc1
EC50 [2]: 1.84 µM (active) | EC50 [3]: > 60 µM (not active)

Cc1cc(C)c2nc(N(CCCN(C)C)C(=O)c3ccc4c(c3)OCCO4)sc2c1
EC50 [2]: 0.5 µM (active) | EC50 [3]: 54.2 µM (active)

O=C(C1CCCCC1)N1CCC(c2nc(O)c3nnn(Cc4c(F)cccc4Cl)c3n2)CC1
EC50 [5]: > 150 µM (not active) | EC50 [6]: 4.19 µM (active) | EC50 [7]: 9.82 µM (active)

CC(CCN(C)C)OC(=O)c1ccc(C(C)c2ccccc2)o1 (centres undefined)
EC50 [2]: 0.845 µM (active) | EC50 [3]: > 60 µM (not active)

O=C(c1cc(-c2ccncc2)nc2ccc(Cl)cc12)N1CCN(Cc2ccc3c(c2)OCO3)CC1
EC50 [2]: 0.152 µM (active) | EC50 [3]: > 60 µM (not active)

CCc1ccccc1N=C(S)NCCSc1ccc(Cl)cc1
EC50 [6]: 19.9 µM (active) | EC50 [7]: > 150 µM (not active)

CCc1ccccc1NC(=S)NCCSc1ccc(Cl)cc1
EC50 [5]: 30.5 µM (active)

OCCN1CCN(Cc2cccc(Oc3ccc(Cl)cc3)c2)CC1
EC50 [2]: 3.92 µM (active) | EC50 [3]: > 60 µM (not active)

COc1cccc(NC(=O)NCCCCc2ccccc2)c1
EC50 [5]: 106 µM (active) | EC50 [6]: > 150 µM (not active) | EC50 [7]: > 150 µM (not active)

CCOC(=O)c1sc2nc(Cc3ccc(Cl)cc3)nc(S)c2c1C
EC50 [6]: 4.03 µM (active) | EC50 [7]: > 150 µM (not active)

O=C(CSc1nnnn1-c1cccc2ccccc12)Nc1ccc(N2CCOCC2)c(Cl)c1
EC50 [2]: 0.457 µM (active) | EC50 [3]: > 60 µM (inconclusive)

Cc1ccc(Cn2nnc(C(=O)Nc3cccc(C)c3C)c2N)cc1
EC50 [1]: 7.98 µM (active)

CCOC(=O)c1sc(NC(=O)c2ccc(S(=O)(=O)N(C)C)cc2)cc1C
EC50 [2]: 2.21 µM (active) | EC50 [3]: 8.88 µM (active)

O=C(Cn1c(C(=O)N2CCN(C3CCCCC3)CC2)cc2sccc21)c1ccccc1
EC50 [2]: 2.53 µM (active) | EC50 [3]: > 60 µM (not active)

CCN(CC)c1ccc(NC(=O)c2ccc3c(c2)c(C)c(C)n3C)cc1
EC50 [2]: 1.63 µM (active) | EC50 [3]: > 60 µM (not active)

Cc1ccc(NC(=N)Nc2nc(C)cc(C)n2)cc1
EC50 [1]: 9.85 µM (active)

Sc1nnc(-c2cc(-c3ccccc3)[nH]n2)n1/N=C/c1ccc(Cl)cc1
EC50 [5]: > 150 µM (not active) | EC50 [6]: 18 µM (active) | EC50 [7]: 21.4 µM (active)

NC(=S)N/N=C\c1ccccc1OCc1ccccc1
EC50 [2]: 0.623 µM (active) | EC50 [3]: > 30 µM (not active)

C=CCNC(=S)N/N=C/c1ccc(-c2ccc(Cl)cc2Cl)o1
EC50 [2]: 1.6 µM (active) | EC50 [3]: > 60 µM (not active)
